Legend:
[1] = molecular target: T1, human recombinant kinase full-length AKT1 E17K (Homo sapiens, UniProt P31749, E17K); experiment: AKT1 E17K kinase assay (TR-FRET, Lance); format: biochemical; details: 0.6 nM AKT1 E17K, 50 nM Ulight-CREBtide, either 50 μM ATP or 2 mM ATP (not specified which), 60 min at RT
T1 construct: Purified human recombinant kinase full-length AKT1 E17K was expressed in insect cells; made in house; host or cells: insect cells
Experimental: AKT1 E17K kinase assay: Inhibitory effects of compounds on AKT1 E17K were undertaken in a 10-pt dose response kinase activity assay measuring phospho-peptide product formation based on TR-FRET signal as described in the following paragraph.
(§1) Purified human recombinant kinase full-length AKT1 E17K was expressed in insect cells and activated in vitro by PDPK1. Ulight™-CREBtide (PerkinElmer, catalog number TRF0107) was used as the peptide substrate. The reaction buffer consisted of 50 mM HEPES pH 7.5, 10 mM MgCl2, 0.01% Triton X-100, 0.01% BSA, 2 mM DTT, 0.6 nM AKT1 E17K, 50 nM. Ulight™ CREBtide and either 50 μM ATP or 2 mM ATP. The compound solution was prepared as 10 mM DMSO stock. […] Final DMSO concentration in the assay was 1%. […] The reaction was stopped after 60 min of incubation at RT by the addition of 10 μL of Detection Mix (PerkinElmer, #CR97-100) consisting of Europium-anti-phospho-CREB (Ser133) (Perkin Elmer, catalog numberTRF0200). Incubation with the detection mix for a further 60 min allowed binding of antibody to the phospho-Ulight™ CREBtide. The fluorescence emissions at 620 nm and 665 nm after excitation at […] was measured using Envision reader. The ratio of the emissions at 665 nm and at 620 nm provided the measure for the amount of phosphorylated CREBtide product of AKT1 E17K kinase activity.

[2] = molecular target: T2, human recombinant kinase full-length wildtype AKT1 (Homo sapiens, UniProt P31749); experiment: AKT1 kinase assay (wildtype, TR-FRET, Lance); format: biochemical; details: 0.6 nM wildtype AKT1, 50 nM Ulight-CREBtide, either 50 μM ATP or 2 mM ATP (not specified which), 60 min at RT
T2 construct: Purified human recombinant kinase full-length wildtype AKT1 was expressed in insect cells; made in house; host or cells: insect cells
Experimental: AKT1 kinase assay: Inhibitory effects of compounds on wildtype AKT1 were undertaken in a 10-pt dose response kinase activity assay measuring phospho-peptide product formation based on TR-FRET signal as described in the following paragraph.
as §1, with “full-length wildtype” for “full-length”, “AKT1” for “AKT1 E17K”, “Ulight™—CREBtide” for “Ulight™-CREBtide”, “AKT1,” for “AKT1 E17K,”, “nM Ulight™-CREBtide” for “nM. Ulight™ CREBtide”

T2 sequence (P31749 whole entry): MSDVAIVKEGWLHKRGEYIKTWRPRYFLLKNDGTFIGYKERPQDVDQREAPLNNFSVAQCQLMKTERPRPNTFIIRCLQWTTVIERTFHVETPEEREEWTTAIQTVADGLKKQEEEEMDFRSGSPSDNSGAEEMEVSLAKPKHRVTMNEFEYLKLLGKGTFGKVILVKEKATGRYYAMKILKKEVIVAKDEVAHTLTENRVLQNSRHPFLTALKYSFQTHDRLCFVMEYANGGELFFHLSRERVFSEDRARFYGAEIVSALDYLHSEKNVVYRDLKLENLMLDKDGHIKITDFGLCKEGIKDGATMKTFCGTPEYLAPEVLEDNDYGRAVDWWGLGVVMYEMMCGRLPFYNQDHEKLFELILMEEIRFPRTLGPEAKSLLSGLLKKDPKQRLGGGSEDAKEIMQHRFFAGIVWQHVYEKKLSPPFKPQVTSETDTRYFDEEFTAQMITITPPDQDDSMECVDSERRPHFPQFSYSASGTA
T1 sequence (P31749 whole entry E17K): as the sequence (P31749 whole entry) above, with E17K counted along it

SMILES	IC50 [1]	IC50 [2]
Nc1ncccc1-c1nc2ccc(-c3ccccc3)nc2n1-c1ccc(NC(=O)c2cccc(C(=O)O)c2F)c(F)c1 [Compound 65, 3-((4-(2-(2-aminopyridin-3-yl)-5-phenyl-3H-imidazo[4,5-b]pyridin-3-yl)-2-fluorophenyl)carbamoyl)-2-fluorobenzoic acid]	0.2 to 0.5 µM	< 0.5 µM
Nc1ncccc1-c1nc2ccc(-c3ccccc3)nc2n1-c1ccc(C2CCN(Cc3ccc(C(=O)O)cc3)CC2)cc1 [Compound 139, 4-((4-(4-(2-(2-aminopyridin-3-yl)-5-phenyl-3H-imidazo[4,5-b]pyridin-3-yl)phenyl)piperidin-1-yl)methyl)benzoic acid]	> 0.5 µM	< 0.5 µM
COC(=O)c1ccc([C@H](C)N2CC(c3ccc(-n4c(-c5cccnc5N)nc5ccc(-c6ccccc6)nc54)cc3)C2)cc1 (single isomer, unassigned) [Compound 158]	> 0.5 µM	< 0.5 µM
Nc1ncccc1-c1nc2ccc(-c3ccccc3)nc2n1-c1ccc(NC(=O)c2cccc(C(=O)O)c2F)nc1 [Compound 61, 3-((5-(2-(2-aminopyridin-3-yl)-5-phenyl-3H-imidazo[4,5-b]pyridin-3-yl)pyridin-2-yl)carbamoyl)-2-fluorobenzoic acid]	0.05 to 0.2 µM	< 0.5 µM
Nc1ncccc1-c1nc2ccc(-c3ccccc3)nc2n1-c1ccc(NC(=O)c2cccc(CC(=O)O)c2)cc1 [Compound 56, 2-(3-((4-(2-(2-aminopyridin-3-yl)-5-phenyl-3H-imidazo[4,5-b]pyridin-3-yl)phenyl)carbamoyl)phenyl)acetic acid]	< 0.05 µM	< 0.5 µM
Nc1ncccc1-c1nc2ccc(-c3ccccc3)nc2n1-c1ccc(NC(=O)c2ccc(C(=O)O)c(F)c2)nc1 [Compound 117]	< 0.05 µM	< 0.5 µM
Nc1ncccc1-c1nc2ccc(-c3ccccc3)nc2n1-c1ccc(CNC(=O)c2cccc(CC(=O)O)c2)c(F)c1 [Compound 50, 2-(3-((4-(2-(2-aminopyridin-3-yl)-5-phenyl-3H-imidazo[4,5-b]pyridin-3-yl)-2-fluorobenzyl)carbamoyl)phenyl)acetic acid]	> 0.5 µM	> 0.5 µM
COC(=O)c1ccc([C@@H](C)N2CC(c3ccc(-n4c(-c5cccnc5N)nc5ccc(-c6ccccc6)nc54)cc3)C2)cc1 (single isomer, unassigned) [Compound 157]	> 0.5 µM	< 0.5 µM
COC(=O)CCc1cccc(C(=O)NCc2ccc(-n3c(-c4cccnc4N)nc4cc(-c5cccnc5)cnc43)cc2)c1 [Compound 93, methyl 3-(3-((4-(2-(2-aminopyridin-3-yl)-6-(pyridin-3-yl)-3H-imidazo[4,5-b]pyridin-3-yl)benzyl)carbamoyl)phenyl) propanoate]	> 0.5 µM	< 0.5 µM
C[C@@H](c1ccc(C(=O)O)cc1)N1CC(c2ccc(-n3c(-c4cccnc4N)nc4ccc(-c5ccccc5)nc43)cc2)C1 (single isomer, unassigned) [Compound 126]	> 0.5 µM	< 0.5 µM
C[C@@H](c1ccc(C(=O)O)cc1C(F)(F)F)N1CC(c2ccc(-n3c(-c4cccnc4N)nc4ccc(-c5ccccc5)nc43)cc2)C1 [Compound 164]	> 0.5 µM	< 0.5 µM
Nc1ncccc1-c1nc2ccc(-c3ccccc3)nc2n1-c1ccc(C2CN(C(=O)c3ccc(C(=O)O)cc3)C2)cc1 [Compound 70, 4-(3-(4-(2-(2-aminopyridin-3-yl)-5-phenyl-3H-imidazo[4,5-b]pyridin-3-yl)phenyl)azetidine-1-carbonyl)benzoic acid]	< 0.05 µM	< 0.5 µM
Nc1ncccc1-c1nc2ccc(-c3ccccc3)nc2n1-c1ccc(C2CN(Cc3ccc(C(=O)O)cc3)C2)nc1 [Compound 168, 4-[[3-[5-[2-(2-amino-3-pyridyl)-5-phenyl-imidazo[4,5-b]pyridin-3-yl]-2-pyridyl]azetidin-1-yl]methyl]benzoic acid]	> 0.5 µM	< 0.5 µM
Nc1ncccc1-c1nc2ccc(-c3ccccc3)nc2n1-c1ccc(C2CN(C(=O)c3ccc(C(=O)O)cc3F)C2)cc1 [Compound 76, 4-(3-(4-(2-(2-aminopyridin-3-yl)-5-phenyl-3H-imidazo[4,5-b]pyridin-3-yl)phenyl)azetidine-1-carbonyl)-3-fluorobenzoic acid]	< 0.05 µM	< 0.5 µM
CC(C)Oc1ccc2nc(-c3cccnc3N)n(-c3ccc(NC(=O)c4ccc(C(=O)O)cc4)nc3)c2c1 [Compound 176, 4-[[5-[2-(2-amino-3-pyridyl)-6-isopropoxy-benzimidazol-1-yl]-2-pyridyl]carbamoyl]benzoic acid]	> 0.5 µM	> 0.5 µM
Nc1ncccc1-c1nc2cc(-c3cccc(NC(=O)c4ccccc4)c3)cnc2n1-c1ccc(CNC(=O)c2cccc(CC(=O)O)c2)cc1 [Compound 85, 2-(3-((4-(2-(2-aminopyridin-3-yl)-6-(3-benzamidophenyl)-3H-imidazo[4,5-b]pyridin-3-yl)benzyl)carbamoyl)phenyl) acetic acid]	0.05 to 0.2 µM	< 0.5 µM
Nc1ncccc1-c1nc2ccc(-c3ccccc3)nc2n1-c1ccc(CNC(=O)c2cccc(CC(=O)O)c2)nc1 [Compound 48, 2-(3-(((5-(2-(2-aminopyridin-3-yl)-5-phenyl-3H-imidazo[4,5-b]pyridin-3-yl)pyridin-2-yl)methyl)carbamoyl)phenyl)acetic acid]	> 0.5 µM	> 0.5 µM
COc1ccc2nc(-c3cccnc3N)n(-c3ccc(CNC(=O)c4cccc(C(=O)O)c4F)cc3)c2c1 [Compound 103, 3-((4-(2-(2-aminopyridin-3-yl)-6-methoxy-1H-benzo[d]imidazol-1-yl)benzyl)carbamoyl)-2-fluorobenzoic acid]	> 0.5 µM	> 0.5 µM
Cc1nc(NC(=O)c2ccc(C(=O)O)c(F)c2)ccc1-n1c(-c2cccnc2N)nc2ccc(-c3ccccc3)nc21 [Compound 154]	< 0.05 µM	< 0.5 µM
Nc1ncccc1-c1nc2ccc(-c3ccccc3)nc2n1-c1ccc(NC(=O)c2cccc(C(=O)O)c2F)cc1 [Compound 55, 3-[[4-[2-(2-amino-3-pyridyl)-5-phenyl-imidazo[4,5-b]pyridin-3-yl]phenyl]carbamoyl]-2-fluoro-benzoic acid]	< 0.05 µM	< 0.5 µM
Nc1ncccc1-c1nc2ccc(-c3ccccc3)nc2n1-c1ccc(CNC(=O)c2cccc(S(=O)(=O)O)c2F)cc1 [Compound 9, 3-((4-(2-(2-aminopyridin-3-yl)-5-phenyl-3H-imidazo[4,5-b]pyridin-3-yl)benzyl)carbamoyl)-2-fluorobenzenesulfonic acid]	0.2 to 0.5 µM	< 0.5 µM
Nc1ncccc1-c1nc2cc(-c3cccnc3)cnc2n1-c1ccc(CNC(=O)c2cccc(CCC(=O)O)c2)cc1 [Compound 94, 3-(3-((4-(2-(2-aminopyridin-3-yl)-6-(pyridin-3-yl)-3H-imidazo[4,5-b]pyridin-3-yl)benzyl)carbamoyl)phenyl) propanoic acid]	> 0.5 µM	< 0.5 µM
Nc1ncccc1-c1nc2cccnc2n1-c1ccc(CNC(=O)c2cccc(CC(=O)O)c2)cc1 [Compound 101, 2-(3-((4-(2-(2-aminopyridin-3-yl)-3H-imidazo[4,5-b]pyridin-3-yl)benzyl)carbamoyl)phenyl) acetic acid]	> 0.5 µM	> 0.5 µM
Nc1ncccc1-c1nc2ccc(-c3ccccc3)nc2n1-c1ccc(NC(=O)c2ccc(C(=O)O)nc2)nc1 [Compound 151]	< 0.05 µM	< 0.5 µM
Nc1ncccc1-c1nc2ccc(-c3ccccc3)nc2n1-c1ccc(NCc2ccc(C(=O)O)cc2F)nc1 [Compound 68, 4-[[[5-[2-(2-amino-3-pyridyl)-5-phenyl-imidazo[4,5-b]pyridin-3-yl]-2-pyridyl]amino]methyl]-3-fluoro-benzoic acid]	0.05 to 0.2 µM	< 0.5 µM

From patent US20260200919A1, “SUBSTITUTED AMINOPYRIDINE COMPOUNDS AND METHODS OF TREATING DISEASE USING SAME” (Atavistik Bio, Inc., priority 2023, published 2026)
